Measurements: patent US20100035793A1, “Modulators” (priority 2005, published 2010)
Non-standard residues stand in square brackets, D forms with d. No end group written: not given here. pY = N[C@@H](Cc1ccc(OP(=O)(O)O)cc1)C(=O)O

Columns and labels:
[1] = target: JAK2 (Homo sapiens, UniProt O60674); conditions: cited from earlier work
[2] = target: T1, Stat3 (Homo sapiens, UniProt P40763); conditions: cited from earlier work
[3] = target: T1, Stat3; conditions: cited from earlier work; remark: listed apart in the source
[4] = tested on: breast carcinoma cells; conditions: cited from earlier work
[5] = target: T1, Stat3; conditions: cited from earlier work; for levels of DNA binding activities of STAT 3: peptide present in nuclear extracts
[6] = tested on: STAT 5; conditions: peptide present in nuclear extracts; cited from earlier work
[7] = tested on: collagen; assay: Western blot of collagen production in KF48 keloid fibroblasts; assay type: cell-based, human; conditions: KF48 infected with retroviral Stat3 siRNAs, FIG. 5A right panel
Method: (§1) These vectors containing Stat3 siRNA targets and empty vector were transfected into 293T-based Phoenix-Ampho packaging cell line for 7-9 h, and the amphotropic retroviruses were harvested 48 h later, pelleted to remove nonadherent cells and cellular debris, and filtered through a […] cellulose acetate membrane. The keloid fibroblasts were infected overnight in the presence of 4 μg/ml polybrene, and replaced with fresh 10% FBS/DMEM the following day. Cells were assayed for Western blot 48 h after infection, or for XTT cell proliferation, or for migration assay which was performed by replating the cells into 8 μM Transwell membrane and fixed 24 h later as described above.
Inhibition of Stat3 was also evaluated by incubating KF48 for 30 min with various doses of Cucurbitacin I, an inhibitor of Jak2/Stat3 activation (32), or with DMSO alone as a control, followed by further incubation in normal growth media for 48 h. […] Cucurbitacin I was acquired from Galchimia (A Corufia, Spain).
(§2) Western blot. Cells were either harvested in radioimmune precipitation assay (RIPA) buffer (150 mM NaCl, 50 mM Tris-HCl, pH 7.2, 1% deoxycholic acid, 1% Triton X-100, 0.25 mM EDTA, pH 8.0) containing protease inhibitor cocktail (Roche Diagnostics Corporation, Indianapolis, Ind., USA), or lysis buffer containing 150 mM NaCl, 10 mM Tris-HCl, pH 7.4, 0.5% Triton-X-100, 0.5% NP-40, 1 mM EDTA, 0.2 mM sodium vanadate, supplemented with protease inhibitor tablet. Total cell lysates were collected after centrifugation for 10 min at 4° C., and resolved in 7.5% or 10% polyacrylamide gel electrophoresis, and transferred to PVDF membranes (Bio-Rad Laboratories, Hercules, Calif., USA). The membranes were blotted with anti-phosphoTyr705 Stat3 antibody (1:1000 dilution; Cell Signaling, Beverly, Mass., USA) overnight at 4° C. overnight in PBS containing 1% BSA and 0.1% Tween 20, washed with PBS containing 0.2% Tween 20, and incubated with secondary anti-rabbit IgG antibody (1:2000 dilution; Sigma, Saint Louis, Mo., USA) for 1 h at room temperature, washed with PBS containing 0.2% Tween 20, followed by enhanced chemiluminescence (Amersham Biosciences, Buckinghamshire, UK) or Lumi-Light (Roche Diagnostics Corporation, Indianapolis, USA), and autoradiography. […]
Methods of assessing polypeptides regulated by STAT Collagen may be regulated by STAT 3 activation. monoclonal anti-human collagen I, II, III Was purchased from MONOSAN (Uden, Netherlands). […] These were detected via western blot as described above.

[8] = tested on: KF48 keloid fibroblasts; assay: Scratch-wound migration assay; assay type: cell-based, human; conditions: KF48 infected with Stat3 siRNA retrovirus, 15 h after wounding, vs vector
Method: Cell migration in keloidflbroblasts is inhibited by Stat3 siRNA and Cucurbitacin I. To examine the role of Stat3 in cell migration of skin fibroblasts, KF48 cells were infected with retrovirus expressing Stat3 siRNAs and scratch assays were performed as previously described. […] Three non-overlapping fields were acquired, and graphically illustrated as mean±SD in FIG. 8B. Transmembrane cell migration assays were also performed in triplicates as described earlier, and quantified as mean±SD (FIG. 8C). […] The right panels in FIG. 8B and 8C depict immunoblots of Stat3 and actin to show the efficiencies of inhibition by the Stat3 siRNAs.
The role of Stat3 in cell migration was also examined using Cucurbitacin I in the scratch assay. KF48 cells were first incubated with 10 μg/ml mitomycin C for 2 h, before treating for 30 min with DMSO or 1 μM Cucurbitacin I. The scratch-wound was performed, followed by further incubation in normal growth media. Pictures were taken at 0 h, 22 h and 48 h after wounding.
Migration assay. For migration assay using the scratch method, cells were grown to confluence and incubated with 10 μg/ml mitomycin C for 2 h, before a scratch wound was introduced using a yellow pipette tip. Cells were further incubated in normal growth media and pictures were taken at 0 h, 14 h, 15 h, 22 h, or 48 h after wounding. Three non-overlapping fields were captured by Axiovert 135 microscope from Zeiss and cells migrated into the wound site were counted and presented as mean±SD.

[9] = tested on: KF48 keloid fibroblasts; assay: Transwell migration assay; assay type: cell-based, human; conditions: KF48 infected with Stat3 siRNA retrovirus, vs vector
Method: as §1
Migration assay was also performed using the Transwell 8.0 μM pore size polycarbonate membrane (Corning Inc.). 1×10^4 cells/well were seeded at the top of the insert in 0.2 ml serum-free DMEM, with 0.5 ml 10% FBS/DMEM in the bottom chamber as chemoattractant. 24 h later, cells were washed once in cold PBS, before fixing with 4% paraformaldehyde in PBS for 15 min at room temperature. Cells were permeabilized with 0.1% Triton X-100 in PBS for 3 min at room temperature, and stained with haematoxylin for 10 min at room temperature, followed by destain with water thrice. Cells from the top of the inserts were removed by cotton swabs, and inserts were left to dry. The inserts were mounted onto slides and three non-overlapping fields of cells migrated to the bottom of the inserts were captured using Leica DM4000 B microscope.

[10] = tested on: Stat3; assay: Western blot of Stat3 expression in KF48 infected with retroviral Stat3 siRNAs; assay type: cell-based, human; conditions: KF48 infected with retrovirus expressing Stat3 siRNAs
Method: as §1
Western blot. Cells were either harvested in radioimmune precipitation assay (RIPA) buffer (150 mM NaCl, 50 mM Tris-HCl, pH 7.2, 1% deoxycholic acid, 1% Triton X-100, 0.25 mM EDTA, pH 8.0) containing protease inhibitor cocktail (Roche Diagnostics Corporation, Indianapolis, Ind., USA), or lysis buffer containing 150 mM NaCl, 10 mM Tris-HCl, pH 7.4, 0.5% Triton-X-100, 0.5% NP-40, 1 mM EDTA, 0.2 mM sodium vanadate, supplemented with protease inhibitor tablet. Total cell lysates were collected after centrifugation for 10 min at 4° C., and resolved in 7.5% or 10% polyacrylamide gel electrophoresis, and transferred to PVDF membranes (Bio-Rad Laboratories, Hercules, Calif., USA). The membranes were blotted with anti-phosphoTyr705 Stat3 antibody (1:1000 dilution; Cell Signaling, Beverly, Mass., USA) overnight at 4° C. overnight in PBS containing 1% BSA and 0.1% Tween 20, washed with PBS containing 0.2% Tween 20, and incubated with secondary anti-rabbit IgG antibody (1:2000 dilution; Sigma, Saint Louis, Mo., USA) for 1 h at room temperature, washed with PBS containing 0.2% Tween 20, followed by enhanced chemiluminescence (Amersham Biosciences, Buckinghamshire, UK) or Lumi-Light (Roche Diagnostics Corporation, Indianapolis, USA), and autoradiography. The membranes were stripped with Restore Western Blotting Stripping Buffer (Pierce, Rockford, Ill., USA) according to manufacturer's instructions and reblotted with anti-phosphoSer727 Stat3 (1:1000 dilution; Cell Signaling, Beverly, Mass., USA) and secondary anti-mouse IgG antibody (1:2000 dilution; Sigma, Saint Louis, Mo., USA). The stripping and reblotting procedure was repeated with monoclonal anti-Stat3 (1:1000 dilution; BD Transduction Laboratories), polyclonal anti-actin (1:1000 dilution; Sigma) and monoclonal anti-collagen antibody (1:1000 dilution; MONOSAN).

[11] = tested on: Stat3; assay: Western blot of Stat3 expression in packaging cells transfected with Stat3 siRNA vectors; set-up: species or system human; conditions: 293T-based amphotropic packaging cell line, FIG. 5A left panel
Source text: Retroviral Stat3 siRNA. Four different targets designed against STAT 3 were selected and cloned into BglII and XhoI into pSUPER.retro.puro from OligoEngine, and sequenced (STAT 3 Genbank Accession number NM_139276). The four targets are named STAT 3 siRNA 1 (nt. 461-480) SEQ ID 1, STAT 3 siRNA 2 (nt. 1264-1283) SEQ ID 2, STAT 3 siRNA 3 (nt. 364-383) GATTGGGCATATGCGGCCA, and STAT 3 siRNA 4 (nt. 1662-1681) SEQ ID 3. The corresponding primers with a 9-nt short hairpin in the middle (bold) are
as §1
as §2, with “autoradiography. The membranes were stripped with Restore Western Blotting Stripping Buffer (Pierce, Rockford, Ill., USA) according to manufacturer's instructions and reblotted with anti-phosphoSer727 Stat3 (1:1000 dilution; Cell Signaling, Beverly, Mass., USA) and secondary anti-mouse IgG antibody (1:2000 dilution; Sigma, Saint Louis, Mo., USA).” for “autoradiography.”

[12] = tested on: KF48 keloid fibroblasts; assay: XTT proliferation assay; assay type: cell-based, human
Source text: Inhibition of Stat3 decreases cell proliferation. Enhanced fibroblast proliferation is a characteristic of keloid tissue. In agreement with this, keloid fibroblasts grown in normal culture conditions proliferated faster than normal fibroblasts, as observed in KF48 and KF107 compared to NF2 and NF4 (FIG. 6A). To investigate whether Stat3 is involved in the enhanced keloid fibroblast proliferation, KF48 was infected with retrovirus expressing Stat3 siRNAs, and cell proliferation was examined. […] XTT proliferation assay. Cells seeded at 3,000 cells/well in 96-well plates and grown in normal growth conditions, or infected with retroviral Stat3 siRNAs, were assayed for proliferation using the XrT proliferation kit (Roche) according to the manufacturer's instructions. The readings were taken at 450 nm and referenced against 690 nm, 2 h after the addition of the XrT reagent. Each sample was performed at quadruplicates in two to three independent experiments. Data are presented as mean±SD
Cell proliferation was also investigated by treating KF48 cells with various doses of Cucurbitacin I or with DMSO control, before incubating in normal growth media and examined daily over 4 days. Cucurbitacin I concentration as low as I μM was able to inhibit cell proliferation of KF48 compared to DMSO and untreated control (0 μM), whereas Cucurbitacin I exposure at 5 μM and above seemed to cause cell death (FIG. 6C).

JAK2, sequence (O60674 whole entry, species assumed): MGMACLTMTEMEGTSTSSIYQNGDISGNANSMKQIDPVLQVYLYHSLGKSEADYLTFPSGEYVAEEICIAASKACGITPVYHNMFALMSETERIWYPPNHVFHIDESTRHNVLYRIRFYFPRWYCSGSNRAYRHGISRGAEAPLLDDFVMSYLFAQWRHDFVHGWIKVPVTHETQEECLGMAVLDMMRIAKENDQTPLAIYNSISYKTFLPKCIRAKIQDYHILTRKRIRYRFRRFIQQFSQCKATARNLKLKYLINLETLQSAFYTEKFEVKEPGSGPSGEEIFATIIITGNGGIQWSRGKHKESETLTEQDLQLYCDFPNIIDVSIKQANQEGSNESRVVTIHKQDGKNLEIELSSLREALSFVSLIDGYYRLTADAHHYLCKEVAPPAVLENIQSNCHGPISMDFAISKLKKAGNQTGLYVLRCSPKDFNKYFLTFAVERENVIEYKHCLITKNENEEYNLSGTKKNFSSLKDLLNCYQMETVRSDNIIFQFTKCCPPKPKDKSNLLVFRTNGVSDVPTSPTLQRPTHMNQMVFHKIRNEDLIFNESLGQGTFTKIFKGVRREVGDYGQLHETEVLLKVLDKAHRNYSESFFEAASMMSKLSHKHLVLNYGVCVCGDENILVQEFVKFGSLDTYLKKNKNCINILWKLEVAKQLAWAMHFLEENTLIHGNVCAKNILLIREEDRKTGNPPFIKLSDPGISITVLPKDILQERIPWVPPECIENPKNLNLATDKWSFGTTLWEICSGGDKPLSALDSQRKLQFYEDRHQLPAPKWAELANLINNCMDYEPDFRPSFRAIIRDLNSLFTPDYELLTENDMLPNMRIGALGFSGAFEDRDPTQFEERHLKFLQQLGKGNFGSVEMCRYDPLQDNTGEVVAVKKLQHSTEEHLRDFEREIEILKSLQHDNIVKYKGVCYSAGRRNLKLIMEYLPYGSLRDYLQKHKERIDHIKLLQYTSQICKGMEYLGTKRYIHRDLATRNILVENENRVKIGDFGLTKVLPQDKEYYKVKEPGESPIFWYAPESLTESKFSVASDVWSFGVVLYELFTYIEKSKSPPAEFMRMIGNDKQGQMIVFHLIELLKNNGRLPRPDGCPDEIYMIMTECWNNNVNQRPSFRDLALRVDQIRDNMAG
T1 sequence (P40763 whole entry, species assumed): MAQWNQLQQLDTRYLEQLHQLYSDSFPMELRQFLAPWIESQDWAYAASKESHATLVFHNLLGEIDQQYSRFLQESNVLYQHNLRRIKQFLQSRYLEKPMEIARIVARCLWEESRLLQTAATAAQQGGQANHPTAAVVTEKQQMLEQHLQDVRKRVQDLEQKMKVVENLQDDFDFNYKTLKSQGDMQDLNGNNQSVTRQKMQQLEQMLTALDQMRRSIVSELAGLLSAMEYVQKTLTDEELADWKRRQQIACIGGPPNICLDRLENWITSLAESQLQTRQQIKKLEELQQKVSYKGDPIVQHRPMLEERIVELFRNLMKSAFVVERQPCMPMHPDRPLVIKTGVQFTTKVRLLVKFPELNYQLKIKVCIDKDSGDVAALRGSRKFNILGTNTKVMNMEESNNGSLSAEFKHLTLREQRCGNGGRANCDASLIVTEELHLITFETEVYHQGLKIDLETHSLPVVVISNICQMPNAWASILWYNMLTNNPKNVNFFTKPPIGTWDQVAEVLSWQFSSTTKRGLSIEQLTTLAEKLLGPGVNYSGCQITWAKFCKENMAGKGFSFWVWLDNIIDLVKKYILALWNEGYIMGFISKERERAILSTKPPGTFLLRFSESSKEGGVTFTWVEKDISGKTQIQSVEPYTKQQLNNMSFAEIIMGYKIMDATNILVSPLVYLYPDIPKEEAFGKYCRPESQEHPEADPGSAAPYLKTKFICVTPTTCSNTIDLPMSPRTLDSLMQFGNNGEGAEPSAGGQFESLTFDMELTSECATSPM

Compound	inhibition of activation of JAK2 [1]	inhibition of activation of STAT 3 [2]	rate of cell migration, scratch assay [8]	cell migration, Transwell [9]	inhibition of Stat3 expression [10]	inhibitory effect on Stat3 expression [11]	further results
CC(=O)OC(C)(C)/C=C/C(=O)[C@](C)(O)[C@H]1[C@H](O)C[C@@]2(C)[C@@H]3CC=C4[C@@H](C[C@H](O)C(=O)C4(C)C)[C@]3(CO)C(=O)C[C@]12C [Cucurbitacin A]	inhibits	not					
CC(=O)OC(C)(C)/C=C/C(=O)[C@](C)(O)[C@H]1[C@H](O)C[C@@]2(C)[C@@H]3CC=C4[C@H](C[C@H](O)C(=O)C4(C)C)[C@]3(C)C(=O)C[C@]12C [Cucurbitacin B]	inhibit	inhibit					
CC(=O)OC(C)(C)/C=C/C(=O)[C@](C)(O)[C@H]1[C@H](O)C[C@@]2(C)[C@@H]3CC=C4[C@@H](C=C(O)C(=O)C4(C)C)[C@]3(C)C(=O)C[C@]12C [Cucurbitacin E]	inhibit	inhibit					
C[C@@H]1CC(=O)c2c(ccc3c2C(=O)c2cccc(O)c2C3=O)C1 [STA-21]							Stat3-dependent luciferase activity [3]: inhibits; Stat3 DNA binding activity [3]: inhibits; Stat3 dimerization [3]: inhibits; effect on cells in which constitutive Stat3 signaling is absent [4]: minimal effect; survival of breast carcinoma cells with constitutive Stat3 signaling [4]: reduces the survival
Cucurbitacin Q	not	inhibits					
PY*L: tripeptide derivative of PY*LKTK, Y* represents phosphotyrosine (Pro-[pY]-Leu; UniProt P40763 704-706, looked up, fragment)							STAT 3 biochemical activity and biological function [5]: inhibit
PY*LKTK: Stat3 SH2 domain-binding phosphopeptide, Y* represents phosphotyrosine (P[pY]LKTK; UniProt P40763 704-709, looked up, fragment)							STAT 3 biochemical activity and biological function [5]: inhibit; levels of DNA binding activities of STAT 3 [5]: significant reduction; levels of DNA binding activities of STAT 5 [6]: no effect
PYLKTK: non-phosphorylated control peptide of PY*LKTK (UniProt P40763 704-709, looked up, fragment)							levels of DNA binding activities of STAT 3 [5]: not
Stat3 siRNA 1: siRNA target nt. 461-480 of STAT 3 (NM—139276), AGTCGAATGTTCTCTATCA, hairpin primers SEQ ID 4 and 5, retroviral vector			impede the rate of cell migration	hinder the cell migration	inhibit Stat3 expression	inhibitory effect	inhibition of collagen production [7]: inhibition of collagen production
Stat3 siRNA 2: siRNA target nt. 1264-1283 of STAT 3, GGCGTCCAGTTCACTACTA, hairpin primers SEQ ID 6 and 7, retroviral vector			impede the rate of cell migration	hinder the cell migration	inhibit Stat3 expression	inhibitory effect	inhibition of collagen production [7]: inhibition of collagen production
Stat3 siRNA 3: siRNA target nt. 364-383 of STAT 3, GATTGGGCATATGCGGCCA, retroviral vector; does not inhibit Stat3			did not	did not	does not inhibit Stat3	not	
Stat3 siRNA 4: siRNA target nt. 1662-1681 of STAT 3, GCGTCCATCCTGTGGTACA, hairpin primers SEQ ID 8 and 9, retroviral vector			impede the rate of cell migration	hinder the cell migration	inhibit Stat3 expression	inhibitory effect	inhibition of collagen production [7]: inhibition of collagen production; relative effectiveness among the siRNAs tested ([12]; keloid fibroblast collagen production, proliferation and migration): most effective; cell proliferation of KF48 ([12]; retroviral Stat3 siRNA, vs noninfected, vector and Stat3 siRNA 3, FIG. 6B): decreased cell proliferation
